Experimental findings from ChEMBL document CHEMBL1201862, “PubChem BioAssay data set” (2004) are described below.

SMILES strings stand for the structures.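 Interpolation was linear, between the two tested concentrations surrounding the appropriate level; five concentrations were tested over 48 hours in 96-well plates. At the GI50, growth is halved.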 Active and inactive are the calls of the source. No stated cut-off is given here; in the data, active = GI50 up to about 1.1 µM and inactive = higher. A value given as a limit tells only on which side of the number the result lay.

Some test systems named below: NCI-H23; MDA-MB-435; SN12C; HCT-116; UACC-257; ACHN; EKVX; TK-10; K562; NCI-H460; HCT-15; RXF 393; HOP-62; LOX IMVI; NCI-H522; NCI/ADR-RES; HL-60; SW-620; OVCAR-4.
Common to all, as to assay: NCI anticancer screen, dose series, 48 h

In the case of `COC(=O)CCC1(CCC(=O)OC)CCCCCCC(CCC(=O)OC)(CCC(=O)OC)C(=O)C1=O`, the GI50 with NCI-H23, in the experiment with MDA-MB-435, with SN12C, with HCT-116, in the experiment on UACC-257 and with ACHN was > 100 µM (inactive) in each case. Further, the GI50 in the experiment on EKVX is > 100 µM (inactive); in the experiment with TK-10, > 100 µM (inactive); in the experiment with K562 it was 23.6 µM (inactive); in the experiment with NCI-H460 it was 93.8 µM (inactive); with HCT-15, > 100 µM; in the experiment on RXF 393, > 100 µM (inactive). In addition, the GI50 in the experiment on HOP-62 is > 100 µM (inactive); in the experiment on LOX IMVI it was > 100 µM (inactive); in the experiment on NCI-H522, > 100 µM (inactive); in the experiment with NCI/ADR-RES, 81.5 µM (inactive).

For `COc1cccc2c1C(=O)c1c(O)c3c(c(O)c1C2=O)CC(O)(C(C)=O)CC3OC1CC([N+](C)(C)C)C(O)C(C)O1` (stereo not given), the GI50 is 72.9 µM (inactive) in the experiment with NCI-H23; 24 µM (inactive) in the experiment with HL-60; 50.7 µM (inactive) with SN12C; 66.8 µM (inactive) in the experiment on HCT-116; > 100 µM (inactive) in the experiment with UACC-257; > 100 µM (inactive) in the experiment with ACHN. In addition, the GI50 with EKVX was > 100 µM (inactive); with TK-10, > 100 µM (inactive); in the experiment on K562 it was 23.1 µM (inactive); in the experiment on NCI-H460 it was 36.4 µM (inactive); in the experiment with HCT-15 it was > 100 µM; in the experiment on RXF 393 it was > 100 µM (inactive). In addition, the GI50 with HOP-62 is > 100 µM (inactive); in the experiment with LOX IMVI it was 51.9 µM (inactive); in the experiment with NCI-H522, 31.3 µM (inactive); in the experiment with SW-620, 56.1 µM (inactive); in the experiment with OVCAR-4 it was > 100 µM (inactive).

Consider `Nc1nc(CCc2n[nH]c(N)n2)n[nH]1`, for which the GI50 in the experiment with NCI-H23, with HL-60, in the experiment on SN12C, in the experiment with HCT-116, with UACC-257 and in the experiment with ACHN was > 100 µM (inactive) each time. The GI50 in the experiment with EKVX was > 100 µM (inactive); in the experiment with TK-10, > 100 µM (inactive); in the experiment with K562 it was > 100 µM (inactive); in the experiment with NCI-H460, > 100 µM (inactive); with HCT-15, > 100 µM; with RXF 393, > 100 µM (inactive). The GI50 in the experiment on HOP-62, in the experiment on LOX IMVI, with NCI-H522, with SW-620 and in the experiment with OVCAR-4 was > 100 µM (inactive) each time.

For `C/C(=C\[Si](C)(C)c1ccco1)C(C)(O)[C@H](C)O` (stereo not given in full), the GI50 in the experiment on NCI-H23 is 30.2 µM (inactive); with MDA-MB-435, 45.3 µM (inactive); with HL-60, 26.9 µM (inactive); in the experiment with SN12C it was 32.7 µM (inactive); in the experiment on HCT-116, 41.6 µM (inactive); with UACC-257, 24.6 µM (inactive). Further, the GI50 is 95.3 µM (inactive) with ACHN; 42.6 µM (inactive) with EKVX; 97.3 µM (inactive) in the experiment on TK-10; 32.3 µM (inactive) in the experiment with K562; 47.5 µM (inactive) in the experiment with NCI-H460; 31.6 µM with HCT-15. Also, the GI50 in the experiment with HOP-62 is > 100 µM (inactive); with LOX IMVI, > 100 µM (inactive); with NCI-H522 it was 30.3 µM (inactive); in the experiment with SW-620, 84.9 µM (inactive); in the experiment on OVCAR-4 it was 2.9 µM (inactive); in the experiment with NCI/ADR-RES, 43.7 µM (inactive).

As to `C/C(=N\NC(N)=S)C(CN(CC(C)C)CC(C)C)C(=O)Nc1ccc(C)cc1C` (stereo not given), the GI50 in the experiment with NCI-H23, with HL-60, in the experiment with SN12C, with HCT-116, in the experiment with UACC-257 and in the experiment on ACHN was > 100 µM (inactive) in each case. Also, the GI50 with EKVX was 54.6 µM (inactive); in the experiment on TK-10 it was > 100 µM (inactive); in the experiment on K562, > 100 µM (inactive); in the experiment on NCI-H460, > 100 µM (inactive); in the experiment with HCT-15, > 100 µM; in the experiment with RXF 393 it was > 100 µM (inactive). In addition, the GI50 in the experiment on HOP-62, with LOX IMVI, in the experiment on NCI-H522, with SW-620 and in the experiment on OVCAR-4 was > 100 µM (inactive) each time.

`COC(=O)N/N=C/C(=C/Nc1ccccc1)[N+](=O)[O-]`: the GI50 with NCI-H23, in the experiment on HL-60, in the experiment with SN12C, in the experiment on HCT-116, in the experiment with UACC-257 and with ACHN was > 100 µM (inactive) each time. Also, the GI50 is > 100 µM (inactive) in the experiment with EKVX; > 100 µM (inactive) in the experiment on TK-10; > 100 µM (inactive) in the experiment on K562; > 100 µM (inactive) with NCI-H460; 59 µM with HCT-15; > 100 µM (inactive) in the experiment with RXF 393. For the same compound, the GI50 in the experiment on HOP-62 was > 100 µM (inactive); in the experiment on LOX IMVI, > 100 µM (inactive); in the experiment with NCI-H522 it was 86.7 µM (inactive); in the experiment on SW-620 it was > 100 µM (inactive); in the experiment with OVCAR-4, > 100 µM (inactive).

In the case of `CC1=C(C(=O)CC(=O)C(=O)Nc2cccc(Cl)c2C)Sc2ccccc2N1`, the GI50 in the experiment on NCI-H23, in the experiment with HL-60, with SN12C, with HCT-116, in the experiment on UACC-257 and in the experiment with ACHN was > 100 µM (inactive) throughout. In addition, the GI50 with EKVX is > 100 µM (inactive); with TK-10, > 100 µM (inactive); in the experiment on K562, > 100 µM (inactive); in the experiment with NCI-H460 it was > 100 µM (inactive); in the experiment on HCT-15, > 100 µM; in the experiment on RXF 393, > 100 µM (inactive). Further, the GI50 with HOP-62, with LOX IMVI, with NCI-H522, with SW-620 and in the experiment on OVCAR-4 was > 100 µM (inactive) each time.

On to `CC1(C)CC(=O)C(=CNc2nc(-c3ccccc3)cs2)C(=O)C1`, for which the GI50 with NCI-H23 was 32.4 µM (inactive); in the experiment on MDA-MB-435 it was 24.9 µM (inactive); with HL-60, 47.9 µM (inactive); in the experiment on SN12C, 39.2 µM (inactive); with HCT-116, > 100 µM (inactive); with UACC-257, 35.1 µM (inactive). Further, the GI50 was 40.5 µM (inactive) in the experiment with ACHN; 26.2 µM (inactive) in the experiment on EKVX; 24 µM (inactive) with TK-10; 30.7 µM (inactive) with NCI-H460; 20.2 µM with HCT-15; 34.2 µM (inactive) in the experiment with HOP-62. For the same compound, the GI50 in the experiment on LOX IMVI was > 100 µM (inactive); in the experiment with SW-620 it was 31.4 µM (inactive); in the experiment with OVCAR-4, 69.5 µM (inactive); in the experiment with NCI/ADR-RES, 34.4 µM (inactive).

As to `C/C(=N\NC(=O)CC(=O)Nc1ccc(Cl)cc1)c1cc2ccccc2oc1=O`, the GI50 in the experiment with NCI-H23, in the experiment with HL-60, in the experiment on SN12C, in the experiment on HCT-116, in the experiment on UACC-257 and with ACHN was > 100 µM (inactive) throughout. Also, the GI50 is > 100 µM (inactive) in the experiment with EKVX; > 100 µM (inactive) in the experiment on TK-10; > 100 µM (inactive) in the experiment with K562; > 100 µM (inactive) in the experiment on NCI-H460; > 100 µM with HCT-15; > 100 µM (inactive) in the experiment with RXF 393. Besides, the GI50 in the experiment with HOP-62, in the experiment with LOX IMVI, with NCI-H522 and with SW-620 was > 100 µM (inactive) in each case.

As for `O=C1CCCC[C@H]1[C@H]1CCC[C@@H]([C@H]2CCCCC2=O)C1=O`, the GI50 in the experiment on NCI-H23, in the experiment with HL-60, in the experiment with SN12C, with HCT-116, with UACC-257 and with ACHN was > 100 µM (inactive) each time. The GI50 in the experiment with EKVX is > 100 µM (inactive); with TK-10, > 100 µM (inactive); in the experiment on K562 it was > 100 µM (inactive); with NCI-H460, > 100 µM (inactive); in the experiment with HCT-15, > 100 µM; in the experiment on RXF 393, > 100 µM (inactive). The GI50 with HOP-62, in the experiment on LOX IMVI, in the experiment on NCI-H522, in the experiment with SW-620 and in the experiment with OVCAR-4 was > 100 µM (inactive) each time.

As for `COCCOCN(C(=O)C1=CCC2(CC1)OCCO2)c1ccccc1I`, the GI50 with NCI-H23, in the experiment on MDA-MB-435, in the experiment on SN12C, with HCT-116, with UACC-257 and with ACHN was > 50 µM (inactive) throughout. Further, the GI50 with EKVX was 29.2 µM (inactive); in the experiment on TK-10, > 50 µM (inactive); in the experiment on NCI-H460, > 50 µM (inactive); with HCT-15, > 50 µM; with HOP-62, > 50 µM (inactive); in the experiment on LOX IMVI, > 50 µM (inactive). Besides, the GI50 with SW-620, with OVCAR-4 and in the experiment with NCI/ADR-RES was > 50 µM (inactive) throughout.

For the compound `O=S(=O)(c1ccccc1)N1CCC1c1ccccc1` (stereo not given), the GI50 with NCI-H23 is > 100 µM (inactive); with HL-60, 6.34 µM (inactive); in the experiment with SN12C, > 100 µM (inactive); in the experiment on HCT-116 it was 87.5 µM (inactive); in the experiment with UACC-257, 63.2 µM (inactive); in the experiment with ACHN it was > 100 µM (inactive). Further, the GI50 was > 100 µM (inactive) in the experiment on EKVX; > 100 µM (inactive) in the experiment on TK-10; 54.3 µM (inactive) in the experiment with K562; > 100 µM (inactive) with NCI-H460; > 100 µM in the experiment with HCT-15; > 100 µM (inactive) in the experiment on RXF 393. Moreover, the GI50 in the experiment on HOP-62 was > 100 µM (inactive); in the experiment on LOX IMVI it was > 100 µM (inactive); in the experiment on NCI-H522 it was 98.9 µM (inactive); in the experiment with SW-620, > 100 µM (inactive); in the experiment on OVCAR-4, 89.5 µM (inactive).
